We go through 13 compounds from US9605004B2, “Chemical compounds” (SYNGENTA LIMITED, priority 2013, dated 2017).

SMILES strings stand for the structures.

Test [1] has as its system a variety of test species. In words: Pre-emergence herbicidal activity (Example 8a, Table 2). Details: key: 0 = no damage to plant, 5 = total damage to plant. The conditions noted are these: application pre-emergence, rate 1000 g/ha, evaluated after 13 days. In kind it is in vivo. The method in brief:
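Compounds are applied pre-emergence as an aqueous spray, formulated in 50:50 acetone/water containing 0.5% Tween 20, to pots sown one day earlier. Plants grow in a controlled glasshouse and are scored 13 days later for damage from 0 to 5.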

Test [2] relates to a variety of test species. In words: Post-emergence herbicidal activity (Example 8b, Table 3). The settings on record: application post-emergence, rate 1000 g/ha, evaluated after 13 days, scale 0-5; for Herbicidal damage score, ABUTH: Abutilon theophrasti; for Herbicidal damage score, ALOMY: Alopecurus myosuroides; for Herbicidal damage score, AMARE: Amaranthus retroflexus; for Herbicidal damage score, ECHCG: Echinochloa crus-galli; for Herbicidal damage score, SETFA: Setaria faberi; for Herbicidal damage score, ZEAMX: Zea mays. Type of test: in vivo. The essentials:
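Seeds were sown in standard soil and cultivated for 8 days under controlled glasshouse conditions. Seedlings were then sprayed with an aqueous solution of the formulated compound containing 0.5% Tween 20. Injury was rated after a further 13 days, where 5 indicated total damage.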

In the case of `CC1=C(Br)C(=O)N(c2cc(C(F)(F)F)n(C)n2)C1O` (stereo not drawn) [Compound J4], in test [1], the “Pre-emergence herbicidal activity, damage score ABUTH” value came to 5; the “Pre-emergence herbicidal activity, damage score ALOMY” value was 4; the “Pre-emergence herbicidal activity, damage score AMARE” value came out at 5; the “Pre-emergence herbicidal activity, damage score ECHCG” value was 4. In test [1], the “Pre-emergence herbicidal activity, damage score SETFA” value came out at 5 and the “Pre-emergence herbicidal activity, damage score ZEAMX” value amounted to 4. In test [2], the “Herbicidal damage score, ABUTH” value came to 5; the “Herbicidal damage score, ALOMY” value is listed as 5; the “Herbicidal damage score, AMARE” value was 5; the “Herbicidal damage score, ECHCG” value is on record as 5. Moreover, in test [2], the “Herbicidal damage score, SETFA” value was 5 and the “Herbicidal damage score, ZEAMX” value is reported as 5.
As for `COC1=C(Br)C(=O)N(c2nn(C)c(C(C)(C)C)c2Br)C1O` (stereo not drawn) [Compound O1], in test [1], the “Pre-emergence herbicidal activity, damage score ABUTH” value is listed as 0; the “Pre-emergence herbicidal activity, damage score ALOMY” value was 0; the “Pre-emergence herbicidal activity, damage score AMARE” value was found to be 0; the “Pre-emergence herbicidal activity, damage score ECHCG” value was found to be 0. Further, in test [1], the “Pre-emergence herbicidal activity, damage score SETFA” value is listed as 0 and the “Pre-emergence herbicidal activity, damage score ZEAMX” value amounted to 0. Besides, in test [2], the “Herbicidal damage score, ABUTH” value was found to be 0; the “Herbicidal damage score, ALOMY” value is given as 0; the “Herbicidal damage score, AMARE” value was 0; the “Herbicidal damage score, ECHCG” value amounted to 0. Also, in test [2], the “Herbicidal damage score, SETFA” value is 0 and the “Herbicidal damage score, ZEAMX” value is recorded as 0.
As for `CC1=C(Cl)C(=O)N(c2nn(C)c(C(C)(C)CCl)c2Cl)C1O` (stereo not drawn) [Compound D4], in test [1], the “Pre-emergence herbicidal activity, damage score ABUTH” value is 5; the “Pre-emergence herbicidal activity, damage score ALOMY” value amounted to 3; the “Pre-emergence herbicidal activity, damage score AMARE” value is reported as 2; the “Pre-emergence herbicidal activity, damage score ECHCG” value amounted to 4. In addition, in test [1], the “Pre-emergence herbicidal activity, damage score SETFA” value stood at 2 and the “Pre-emergence herbicidal activity, damage score ZEAMX” value worked out at 2. Also, in test [2], the “Herbicidal damage score, ABUTH” value came to 5; the “Herbicidal damage score, ALOMY” value turned out to be 4; the “Herbicidal damage score, AMARE” value was 4; the “Herbicidal damage score, ECHCG” value amounted to 5. In addition, in test [2], the “Herbicidal damage score, SETFA” value is 4 and the “Herbicidal damage score, ZEAMX” value is 0.
As to `COC1=C(C)C(O)N(c2cc(C(F)(F)F)n(C)n2)C1=O` (stereo not drawn) [Compound H4], in test [1], the “Pre-emergence herbicidal activity, damage score ABUTH” value came to 5; the “Pre-emergence herbicidal activity, damage score ALOMY” value stood at 4; the “Pre-emergence herbicidal activity, damage score AMARE” value came to 5; the “Pre-emergence herbicidal activity, damage score ECHCG” value was determined as 5. For the same compound, in test [1], the “Pre-emergence herbicidal activity, damage score SETFA” value was found to be 5 and the “Pre-emergence herbicidal activity, damage score ZEAMX” value stood at 4. Also, in test [2], the “Herbicidal damage score, ABUTH” value amounted to 5; the “Herbicidal damage score, ALOMY” value is listed as 5; the “Herbicidal damage score, AMARE” value was found to be 5; the “Herbicidal damage score, ECHCG” value is given as 5. In test [2], the “Herbicidal damage score, SETFA” value was determined as 5 and the “Herbicidal damage score, ZEAMX” value amounted to 5.
Regarding `CC1=C(Cl)C(=O)N(c2cc(C(C)(C)C)n(C)n2)C1OC(=O)OCC(C)C` (stereo not drawn) [Compound F1], in test [1], the “Pre-emergence herbicidal activity, damage score ABUTH” value is 5; the “Pre-emergence herbicidal activity, damage score ALOMY” value was 3; the “Pre-emergence herbicidal activity, damage score AMARE” value was 5; the “Pre-emergence herbicidal activity, damage score ECHCG” value is reported as 5. In addition, in test [1], the “Pre-emergence herbicidal activity, damage score SETFA” value is recorded as 4 and the “Pre-emergence herbicidal activity, damage score ZEAMX” value is 2. Further, in test [2], the “Herbicidal damage score, ABUTH” value was found to be 5; the “Herbicidal damage score, ALOMY” value stood at 5; the “Herbicidal damage score, AMARE” value is given as 5; the “Herbicidal damage score, ECHCG” value was determined as 5. In addition, in test [2], the “Herbicidal damage score, SETFA” value came to 5 and the “Herbicidal damage score, ZEAMX” value came out at 5.
For the compound `CC1=C(Cl)C(=O)N(c2ccn(C)n2)C1O` (stereo not drawn) [Compound B15], in test [1], the “Pre-emergence herbicidal activity, damage score ABUTH” value is on record as 4; the “Pre-emergence herbicidal activity, damage score ALOMY” value was determined as 3; the “Pre-emergence herbicidal activity, damage score AMARE” value was found to be 5; the “Pre-emergence herbicidal activity, damage score ECHCG” value was 4. For the same compound, in test [1], the “Pre-emergence herbicidal activity, damage score SETFA” value worked out at 4 and the “Pre-emergence herbicidal activity, damage score ZEAMX” value is 2. Moreover, in test [2], the “Herbicidal damage score, ABUTH” value was determined as 4; the “Herbicidal damage score, ALOMY” value came out at 3; the “Herbicidal damage score, AMARE” value is on record as 4; the “Herbicidal damage score, ECHCG” value is given as 4. Besides, in test [2], the “Herbicidal damage score, SETFA” value was 2 and the “Herbicidal damage score, ZEAMX” value turned out to be 1.
With `CC1=C(Cl)C(=O)N(c2cc([S+](C)[O-])n(C)n2)C1O` (mixture of isomers) [Compound B46], in test [1], the “Pre-emergence herbicidal activity, damage score ABUTH” value is recorded as 5; the “Pre-emergence herbicidal activity, damage score ALOMY” value stood at 3; the “Pre-emergence herbicidal activity, damage score AMARE” value is on record as 5; the “Pre-emergence herbicidal activity, damage score ECHCG” value is on record as 4. In test [1], the “Pre-emergence herbicidal activity, damage score SETFA” value was determined as 4 and the “Pre-emergence herbicidal activity, damage score ZEAMX” value turned out to be 1. In test [2], the “Herbicidal damage score, ABUTH” value stood at 5; the “Herbicidal damage score, ALOMY” value came out at 4; the “Herbicidal damage score, AMARE” value was determined as 5; the “Herbicidal damage score, ECHCG” value is listed as 5. For the same compound, in test [2], the “Herbicidal damage score, SETFA” value is recorded as 5 and the “Herbicidal damage score, ZEAMX” value is 4.
As to `COC1=C(C)C(O)N(c2cc(C(C)(C)C)n(C)n2)C1=O` (stereo not drawn) [Compound H2], in test [1], the “Pre-emergence herbicidal activity, damage score ALOMY” value is recorded as 4 and the “Pre-emergence herbicidal activity, damage score ZEAMX” value is 4. Further, the “Herbicidal damage score, ZEAMX” value in test [2] amounted to 4.
On to `CCO/C=C\c1cc(N2C(=O)C(Cl)=C(C)C2O)nn1C` (stereo not drawn) [Compound B49], for which, in test [1], the “Pre-emergence herbicidal activity, damage score ABUTH” value is 0; the “Pre-emergence herbicidal activity, damage score ALOMY” value is 0; the “Pre-emergence herbicidal activity, damage score AMARE” value is given as 0; the “Pre-emergence herbicidal activity, damage score ECHCG” value is recorded as 0. Also, in test [1], the “Pre-emergence herbicidal activity, damage score SETFA” value stood at 0 and the “Pre-emergence herbicidal activity, damage score ZEAMX” value was determined as 0. Besides, in test [2], the “Herbicidal damage score, ABUTH” value is given as 2; the “Herbicidal damage score, ALOMY” value is 0; the “Herbicidal damage score, AMARE” value came out at 4; the “Herbicidal damage score, ECHCG” value is recorded as 0. For the same compound, in test [2], the “Herbicidal damage score, SETFA” value is listed as 3 and the “Herbicidal damage score, ZEAMX” value is reported as 1.
In the case of `CC1=C(Cl)C(=O)N(c2cc(C(C)C)[nH]n2)C1O` (stereo not drawn) [Compound A3], in test [1], the “Pre-emergence herbicidal activity, damage score ABUTH” value came out at 5; the “Pre-emergence herbicidal activity, damage score ALOMY” value was determined as 3; the “Pre-emergence herbicidal activity, damage score AMARE” value worked out at 5; the “Pre-emergence herbicidal activity, damage score ECHCG” value amounted to 5. Further, in test [1], the “Pre-emergence herbicidal activity, damage score SETFA” value worked out at 5 and the “Pre-emergence herbicidal activity, damage score ZEAMX” value is 1. Besides, in test [2], the “Herbicidal damage score, ABUTH” value turned out to be 5; the “Herbicidal damage score, ALOMY” value is reported as 5; the “Herbicidal damage score, AMARE” value is recorded as 5; the “Herbicidal damage score, ECHCG” value was 5. For the same compound, in test [2], the “Herbicidal damage score, SETFA” value is listed as 5 and the “Herbicidal damage score, ZEAMX” value was 5.
Turning to `COC1=C(C)C(O)N(c2cc3n(n2)CCCC3(C)C)C1=O` (stereo not drawn) [Compound R2], in test [1], the “Pre-emergence herbicidal activity, damage score ABUTH” value is given as 5; the “Pre-emergence herbicidal activity, damage score ALOMY” value was 4; the “Pre-emergence herbicidal activity, damage score AMARE” value is reported as 5; the “Pre-emergence herbicidal activity, damage score ECHCG” value is listed as 5. In test [1], the “Pre-emergence herbicidal activity, damage score SETFA” value came out at 5 and the “Pre-emergence herbicidal activity, damage score ZEAMX” value was 4. Moreover, in test [2], the “Herbicidal damage score, ABUTH” value is 5; the “Herbicidal damage score, ALOMY” value is 5; the “Herbicidal damage score, AMARE” value is listed as 5; the “Herbicidal damage score, ECHCG” value stood at 5. Moreover, in test [2], the “Herbicidal damage score, SETFA” value turned out to be 5 and the “Herbicidal damage score, ZEAMX” value is 4.
Turning to `CCn1nc(N2C(=O)C(Cl)=C(C)C2O)cc1C(F)(F)F` (stereo not drawn) [Compound C1], in test [1], the “Pre-emergence herbicidal activity, damage score ABUTH” value was found to be 5; the “Pre-emergence herbicidal activity, damage score ALOMY” value is on record as 4; the “Pre-emergence herbicidal activity, damage score AMARE” value is reported as 5; the “Pre-emergence herbicidal activity, damage score ECHCG” value is 5. Also, in test [1], the “Pre-emergence herbicidal activity, damage score SETFA” value is listed as 4 and the “Pre-emergence herbicidal activity, damage score ZEAMX” value came to 4. In test [2], the “Herbicidal damage score, ABUTH” value came to 5; the “Herbicidal damage score, ALOMY” value was found to be 5; the “Herbicidal damage score, AMARE” value turned out to be 5; the “Herbicidal damage score, ECHCG” value is on record as 5. Moreover, in test [2], the “Herbicidal damage score, SETFA” value was determined as 4 and the “Herbicidal damage score, ZEAMX” value is recorded as 3.
For the compound `CC1=C(Cl)C(=O)N(c2cc(C(F)(F)F)n(C)n2)C1O` (stereo not drawn) [Compound B3], in test [1], the “Pre-emergence herbicidal activity, damage score ABUTH” value worked out at 5; the “Pre-emergence herbicidal activity, damage score ALOMY” value is given as 4; the “Pre-emergence herbicidal activity, damage score AMARE” value was found to be 4; the “Pre-emergence herbicidal activity, damage score ECHCG” value is given as 5. Besides, in test [1], the “Pre-emergence herbicidal activity, damage score SETFA” value was determined as 4 and the “Pre-emergence herbicidal activity, damage score ZEAMX” value turned out to be 2. Besides, in test [2], the “Herbicidal damage score, ABUTH” value is given as 5; the “Herbicidal damage score, ALOMY” value was 5; the “Herbicidal damage score, AMARE” value turned out to be 5; the “Herbicidal damage score, ECHCG” value was found to be 5. In test [2], the “Herbicidal damage score, SETFA” value is 5 and the “Herbicidal damage score, ZEAMX” value is 4.
